Measurements as given in ChEMBL document CHEMBL3232912, “Anti-inflammatory diterpenoids from the roots of Euphorbia ebracteolata” (J Nat Prod, 2014).

Legend:
[1] = tested on: RAW264.7; assay: Cytotoxicity against mouse RAW264.7 cells at IC50 by MTT assay; format: cell-based
[2] = tested on: RAW264.7; assay: Antiinflammatory activity in mouse RAW264.7 cells assessed as inhibition of LPS-induced nitric oxide production after 24 hrs by Griess method; format: functional, cell-based; conditions: RAW264.7, 24 h

Question: With `C=C[C@]1(C)CC[C@@]2(C)c3cc(O)c(O)c(C)c3CC[C@@H]2C1` as the compound, how does the Activity [1] read?
Answer: Non-toxic

Question: What about the IC50 [2] of the same compound?
Answer: 3.33 µM

Question: What does the source list for `C=C[C@]1(C)CC[C@]2(C)[C@H](CC[C@H]3[C@@](C)(CO)C(=O)C=C[C@@]32O)C1`?
Answer: Activity [1]: Non-toxic; IC50 [2]: 7.32 µM

Question: How did the Activity [1] turn out when `C=C[C@]1(C)CC[C@@]2(C)C3=CC(=O)[C@@H]4C[C@]4(C)[C@]3(O)CC[C@@H]2C1` was run?
Answer: Non-toxic

Question: What about the IC50 [2] of the same compound?
Answer: 2.76 µM

Question: For `C=C[C@]1(C)CC[C@@]2(C)C3=C[C@@H](O)[C@H](O)C(C)(C)[C@@H]3CC[C@@H]2C1`, which Activity [1] is on record?
Answer: Non-toxic

Question: And the IC50 [2]?
Answer: 24.3 µM

Question: How did the Activity [1] turn out when `C=C[C@]1(C)CC[C@@]2(C)C3=C[C@H](O)[C@H](O)C(C)(C)[C@@H]3CC[C@@H]2C1` was run?
Answer: Non-toxic

Question: And the IC50 [2]?
Answer: 12.5 µM

Question: Which Activity [1] does the source give for `C=C[C@]1(C)CC[C@@]2(C)C3=CC(=O)[C@H](O)[C@](C)(CO)[C@@H]3CC[C@@H]2C1` here?
Answer: Non-toxic

Question: And the IC50 [2]?
Answer: 1.02 µM

Question: With `C=C[C@]1(C)CC[C@]2(C)[C@H](CC[C@H]3[C@@](C)(CO)C(=O)C=C[C@]32O)C1` as the compound, how does the Activity [1] read?
Answer: Non-toxic

Question: And the IC50 [2]?
Answer: 19 µM

Question: How did the Activity [1] turn out when `C=C[C@]1(C)CC[C@@]2(C)c3cc(O)c(O)c(C)c3C[C@H](O)[C@@H]2C1` was run?
Answer: Non-toxic

Question: What about the IC50 [2] of the same compound?
Answer: 2.44 µM

Question: Which results are given for `C=C[C@]1(C)CC[C@@]2(CO)C3=CC(=O)O[C@@H]3C(C)(C)CC[C@@H]2C1`?
Answer: Activity [1]: Non-toxic; IC50 [2]: 7.5 µM

Question: Which results are given for `C=C[C@]1(C)CC[C@@]2(C)C3=CC(=O)O[C@@H]3C(C)(C)C[C@H](O)[C@@H]2C1`?
Answer: Activity [1]: Non-toxic; IC50 [2]: 6.49 µM

Question: Which results are given for `C=C[C@]1(C)CC[C@@]2(C)C3=CC[C@H](O)[C@](C)(CO)[C@@H]3CC[C@@H]2C1`?
Answer: Activity [1]: Non-toxic; IC50 [2]: 7.29 µM

Question: For `C=C[C@]1(C)CC[C@@]2(C)C3=CC[C@H](O)C(C)(C)[C@@H]3C[C@H](O)[C@@H]2C1`, which Activity [1] is on record?
Answer: Non-toxic

Question: And the IC50 [2]?
Answer: 5.51 µM

Question: For `C=C[C@]1(C)CC[C@@]2(CO)C3=CC[C@H](O)C(C)(C)[C@@H]3CC[C@@H]2C1`, which Activity [1] is on record?
Answer: Non-toxic

Question: And the IC50 [2]?
Answer: 5.57 µM

Question: Which IC50 [2] does the source give for `COc1ccc2c(c1)c(CC(=O)O)c(C)n2C(=O)c1ccc(Cl)cc1` [INDOMETHACIN] here?
Answer: 16.7 µM
